Laboratory results reported in patent EP4722207A1, “OXOISOINDOLINYL-SUBSTITUTED TETRAHYDROPYRIMIDINEDIONE DERIVATIVE AND USE THEREOF” (Gluetacs Therapeutics (Shanghai) Co., Ltd., priority 2023, dated 2024).

Tests used:
Assay type in all cases: cell-based
Details in all cases: compounds at 50 nM and 500 nM, 24 hours
GSPT1 = biological target: T1, GSPT1 (Homo sapiens, UniProt P15170+Q96SW2); assay: Western-blot assay, substrate protein degradation in hPBMCs: GSPT1
T1 construct: effects of the compounds of the present disclosure on the expression of target proteins in cells; endogenous in cells; host or cells: human PBMCs (hPBMCs)

CK1α = biological target: T2, CK1α (Homo sapiens, UniProt P48729+Q96SW2); assay: Western-blot assay, substrate protein degradation in hPBMCs: CK1α
T2 construct: effects of the compounds of the present disclosure on the expression of target proteins in cells; endogenous in cells; host or cells: human PBMCs (hPBMCs)

IKZF3 = biological target: T3, IKZF3 (Homo sapiens, UniProt Q96SW2+Q9UKT9); assay: Western-blot assay, substrate protein degradation in hPBMCs: IKZF3
T3 construct: effects of the compounds of the present disclosure on the expression of target proteins in cells; endogenous in cells; host or cells: human PBMCs (hPBMCs)

IKZF1 = biological target: T4, IKZF1 (Homo sapiens, UniProt Q13422+Q96SW2); assay: Western-blot assay, substrate protein degradation in hPBMCs: IKZF1
T4 construct: effects of the compounds of the present disclosure on the expression of target proteins in cells; endogenous in cells; host or cells: human PBMCs (hPBMCs)

IKZF2 = biological target: T5, IKZF2 (Homo sapiens, UniProt Q96SW2+Q9UKS7); assay: Western-blot assay, substrate protein degradation in hPBMCs: IKZF2
T5 construct: effects of the compounds of the present disclosure on the expression of target proteins in cells; endogenous in cells; host or cells: human PBMCs (hPBMCs)

WEE1 = biological target: T6, WEE1 (Homo sapiens, UniProt P30291+Q96SW2); assay: Western-blot assay, substrate protein degradation in hPBMCs: WEE1
T6 construct: effects of the compounds of the present disclosure on the expression of target proteins in cells; endogenous in cells; host or cells: human PBMCs (hPBMCs)
T6 sequence (P30291 whole entry): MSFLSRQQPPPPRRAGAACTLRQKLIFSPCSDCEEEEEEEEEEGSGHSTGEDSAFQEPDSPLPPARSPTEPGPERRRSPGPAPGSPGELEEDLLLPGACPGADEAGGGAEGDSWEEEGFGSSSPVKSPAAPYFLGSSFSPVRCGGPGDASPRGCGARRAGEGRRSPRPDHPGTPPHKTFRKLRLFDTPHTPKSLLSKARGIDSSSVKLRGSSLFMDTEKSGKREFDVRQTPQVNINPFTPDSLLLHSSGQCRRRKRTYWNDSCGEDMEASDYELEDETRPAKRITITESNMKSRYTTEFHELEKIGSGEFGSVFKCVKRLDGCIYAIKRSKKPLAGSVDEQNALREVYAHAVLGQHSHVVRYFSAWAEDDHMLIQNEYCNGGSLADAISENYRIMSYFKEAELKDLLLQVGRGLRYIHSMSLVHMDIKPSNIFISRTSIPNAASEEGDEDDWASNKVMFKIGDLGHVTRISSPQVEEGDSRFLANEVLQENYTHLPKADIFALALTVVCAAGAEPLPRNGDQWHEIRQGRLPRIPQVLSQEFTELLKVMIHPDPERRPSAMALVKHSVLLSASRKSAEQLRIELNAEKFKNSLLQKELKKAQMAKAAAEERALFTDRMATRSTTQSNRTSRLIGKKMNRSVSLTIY
T6 sequence (Q96SW2 whole entry): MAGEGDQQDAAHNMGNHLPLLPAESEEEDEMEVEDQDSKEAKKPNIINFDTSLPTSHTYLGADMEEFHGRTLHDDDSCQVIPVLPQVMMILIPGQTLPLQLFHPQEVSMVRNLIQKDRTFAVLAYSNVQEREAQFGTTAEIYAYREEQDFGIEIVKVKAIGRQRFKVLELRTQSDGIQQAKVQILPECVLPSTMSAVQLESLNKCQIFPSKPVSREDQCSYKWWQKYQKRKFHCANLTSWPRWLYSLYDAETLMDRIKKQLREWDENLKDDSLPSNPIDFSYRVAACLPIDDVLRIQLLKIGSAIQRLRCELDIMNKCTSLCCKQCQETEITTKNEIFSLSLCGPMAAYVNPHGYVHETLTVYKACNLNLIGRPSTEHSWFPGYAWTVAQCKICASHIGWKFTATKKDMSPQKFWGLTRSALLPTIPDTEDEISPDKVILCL
T6 sequence (Q16531 whole entry partner): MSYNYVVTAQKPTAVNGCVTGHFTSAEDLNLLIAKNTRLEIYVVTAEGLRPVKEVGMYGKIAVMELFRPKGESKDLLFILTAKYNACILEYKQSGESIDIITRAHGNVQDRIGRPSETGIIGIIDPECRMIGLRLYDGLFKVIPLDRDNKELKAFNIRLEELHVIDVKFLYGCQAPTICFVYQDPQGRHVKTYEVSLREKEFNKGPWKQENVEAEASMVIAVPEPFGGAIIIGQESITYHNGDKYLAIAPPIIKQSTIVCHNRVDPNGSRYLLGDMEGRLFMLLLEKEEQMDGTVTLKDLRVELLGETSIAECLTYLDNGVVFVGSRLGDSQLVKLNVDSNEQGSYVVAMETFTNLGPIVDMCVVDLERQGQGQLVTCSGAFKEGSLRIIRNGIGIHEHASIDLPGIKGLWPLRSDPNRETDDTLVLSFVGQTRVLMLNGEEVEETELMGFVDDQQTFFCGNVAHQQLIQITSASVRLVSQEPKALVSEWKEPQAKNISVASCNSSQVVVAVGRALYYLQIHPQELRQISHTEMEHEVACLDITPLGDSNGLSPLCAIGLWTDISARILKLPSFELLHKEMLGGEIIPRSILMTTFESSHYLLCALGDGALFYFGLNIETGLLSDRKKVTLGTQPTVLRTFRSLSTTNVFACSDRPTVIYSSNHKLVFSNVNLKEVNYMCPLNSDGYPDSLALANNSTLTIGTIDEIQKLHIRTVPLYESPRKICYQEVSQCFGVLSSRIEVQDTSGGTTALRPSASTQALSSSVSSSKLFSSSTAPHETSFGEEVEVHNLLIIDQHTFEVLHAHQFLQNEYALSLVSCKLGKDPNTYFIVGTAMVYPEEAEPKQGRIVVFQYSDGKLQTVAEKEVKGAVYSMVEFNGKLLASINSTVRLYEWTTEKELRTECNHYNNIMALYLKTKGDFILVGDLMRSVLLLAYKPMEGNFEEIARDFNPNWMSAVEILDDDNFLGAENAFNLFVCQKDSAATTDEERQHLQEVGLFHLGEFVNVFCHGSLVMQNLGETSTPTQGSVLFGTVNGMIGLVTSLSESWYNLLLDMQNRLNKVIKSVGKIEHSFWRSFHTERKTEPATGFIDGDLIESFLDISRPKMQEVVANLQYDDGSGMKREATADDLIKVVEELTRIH

T4 sequence (Q13422 whole entry): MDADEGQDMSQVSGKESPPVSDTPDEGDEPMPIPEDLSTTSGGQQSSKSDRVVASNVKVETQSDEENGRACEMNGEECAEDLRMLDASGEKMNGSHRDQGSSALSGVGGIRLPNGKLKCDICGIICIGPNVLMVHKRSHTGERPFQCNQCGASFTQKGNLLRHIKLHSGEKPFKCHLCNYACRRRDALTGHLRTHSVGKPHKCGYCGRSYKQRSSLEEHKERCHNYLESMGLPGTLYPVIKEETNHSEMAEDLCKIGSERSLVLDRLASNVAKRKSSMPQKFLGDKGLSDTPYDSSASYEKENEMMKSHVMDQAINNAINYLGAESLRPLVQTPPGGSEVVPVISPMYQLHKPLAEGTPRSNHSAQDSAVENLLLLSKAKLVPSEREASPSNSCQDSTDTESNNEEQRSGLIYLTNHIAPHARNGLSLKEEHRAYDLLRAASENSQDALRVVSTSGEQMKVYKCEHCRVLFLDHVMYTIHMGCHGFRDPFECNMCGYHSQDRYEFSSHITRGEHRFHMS
T4 sequence (Q96SW2 whole entry): as the sequence (Q96SW2 whole entry) above
T4 sequence (Q16531 whole entry partner): as the sequence (Q16531 whole entry partner) above
T1 sequence (P15170 whole entry): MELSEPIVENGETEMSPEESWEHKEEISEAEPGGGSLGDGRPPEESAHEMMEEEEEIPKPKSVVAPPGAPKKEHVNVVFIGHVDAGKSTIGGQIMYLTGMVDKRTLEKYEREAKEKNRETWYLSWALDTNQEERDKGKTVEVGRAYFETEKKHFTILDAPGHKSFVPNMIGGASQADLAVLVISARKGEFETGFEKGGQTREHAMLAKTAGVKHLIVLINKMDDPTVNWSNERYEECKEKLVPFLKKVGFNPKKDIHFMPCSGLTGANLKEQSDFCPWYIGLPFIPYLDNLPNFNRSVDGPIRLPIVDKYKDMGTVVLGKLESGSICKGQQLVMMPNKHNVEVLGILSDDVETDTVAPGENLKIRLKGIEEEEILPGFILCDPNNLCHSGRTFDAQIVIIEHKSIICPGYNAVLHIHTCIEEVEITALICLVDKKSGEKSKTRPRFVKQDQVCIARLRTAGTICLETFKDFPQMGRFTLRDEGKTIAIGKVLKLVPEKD
T1 sequence (Q96SW2 whole entry): as the sequence (Q96SW2 whole entry) above
T1 sequence (Q16531 whole entry partner): as the sequence (Q16531 whole entry partner) above
T3 sequence (Q9UKT9 whole entry): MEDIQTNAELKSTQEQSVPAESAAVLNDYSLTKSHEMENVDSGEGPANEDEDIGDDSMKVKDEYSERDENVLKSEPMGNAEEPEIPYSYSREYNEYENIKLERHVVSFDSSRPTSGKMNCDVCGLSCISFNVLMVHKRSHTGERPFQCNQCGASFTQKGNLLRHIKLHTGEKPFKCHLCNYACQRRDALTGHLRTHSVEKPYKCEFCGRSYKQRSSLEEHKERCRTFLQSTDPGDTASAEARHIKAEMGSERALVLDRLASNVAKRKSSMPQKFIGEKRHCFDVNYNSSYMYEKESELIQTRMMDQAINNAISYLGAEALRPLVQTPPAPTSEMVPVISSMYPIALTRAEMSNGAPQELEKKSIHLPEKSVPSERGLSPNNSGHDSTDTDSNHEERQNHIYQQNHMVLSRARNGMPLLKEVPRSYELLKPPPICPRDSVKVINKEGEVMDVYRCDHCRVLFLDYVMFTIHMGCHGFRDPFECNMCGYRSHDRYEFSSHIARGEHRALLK
T3 sequence (Q96SW2 whole entry): as the sequence (Q96SW2 whole entry) above
T3 sequence (Q16531 whole entry partner): as the sequence (Q16531 whole entry partner) above
T2 sequence (P48729 whole entry): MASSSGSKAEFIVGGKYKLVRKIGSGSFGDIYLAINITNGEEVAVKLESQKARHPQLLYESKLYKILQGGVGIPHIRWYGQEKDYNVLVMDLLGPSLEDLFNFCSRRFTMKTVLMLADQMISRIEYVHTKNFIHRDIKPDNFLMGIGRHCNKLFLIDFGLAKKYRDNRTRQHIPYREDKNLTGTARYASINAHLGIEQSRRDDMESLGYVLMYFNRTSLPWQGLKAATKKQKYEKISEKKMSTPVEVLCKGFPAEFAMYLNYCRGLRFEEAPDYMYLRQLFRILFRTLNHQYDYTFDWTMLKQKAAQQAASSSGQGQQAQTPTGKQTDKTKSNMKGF
T2 sequence (Q96SW2 whole entry): as the sequence (Q96SW2 whole entry) above
T2 sequence (Q16531 whole entry partner): as the sequence (Q16531 whole entry partner) above

Compound | GSPT1 substrate protein remaining % (GSPT1) | CK1α substrate protein remaining % (CK1α) | IKZF3 substrate protein remaining % (IKZF3) | IKZF1 substrate protein remaining % (IKZF1) | IKZF2 substrate protein remaining % (IKZF2) | WEE1 substrate protein remaining % (WEE1)
O=C1CCN(N2C(=O)c3ccc(CN4CC=C(c5ccco5)CC4)cc3C2=O)C(=O)N1 [GT-05317, 2-(2,4-dioxotetrahydropyrimidin-1(2H)-yl)-5-((4-(furan-2-yl)-3,6-dihydropyridin-1(2H)-yl)methyl)isoindoline-1,3-dione] | A ("A" is defined as 0% ≤ substrate protein remaining % ≤ 80%) | B ("B" is defined as 80%< substrate protein remaining %≤ 100%) | B ("B" is defined as 80%< substrate protein remaining %≤ 100%) | B ("B" is defined as 80%< substrate protein remaining %≤ 100%) | B ("B" is defined as 80%< substrate protein remaining %≤ 100%) | B ("B" is defined as 80%< substrate protein remaining %≤ 100%)
O=C1CCN(N2C(=O)c3ccc(CN4CCN(c5ccc(Cl)cn5)CC4)cc3C2=O)C(=O)N1 [GT-05350, 5-((4-(5-chloropyridin-2-yl)piperazin-1-yl)methyl)-2-(2,4-dioxotetrahydropyrimidin-1(2H)-yl)isoindoline-1,3-dione] | A ("A" is defined as 0% ≤ substrate protein remaining % ≤ 80%) | B ("B" is defined as 80%< substrate protein remaining %≤ 100%) | B ("B" is defined as 80%< substrate protein remaining %≤ 100%) | B ("B" is defined as 80%< substrate protein remaining %≤ 100%) | B ("B" is defined as 80%< substrate protein remaining %≤ 100%) | B ("B" is defined as 80%< substrate protein remaining %≤ 100%)
Cc1cccc(N2CCN(Cc3ccc4c(c3)C(=O)N(N3CCC(=O)NC3=O)C4=O)CC2)n1 [GT-05352, 2-(2,4-dioxotetrahydropyrimidin-1(2H)-yl)-5-((4-(6-methylpyridin-2-yl)piperazin-1-yl)methyl)isoindoline-1,3-dione] | A ("A" is defined as 0% ≤ substrate protein remaining % ≤ 80%) | B ("B" is defined as 80%< substrate protein remaining %≤ 100%) | B ("B" is defined as 80%< substrate protein remaining %≤ 100%) | B ("B" is defined as 80%< substrate protein remaining %≤ 100%) | A ("A" is defined as 0% ≤ substrate protein remaining % ≤ 80%) | B ("B" is defined as 80%< substrate protein remaining %≤ 100%)
O=C1CCN(N2Cc3cc(CN4CCN(c5nccc(Cl)c5F)CC4)ccc3C2=O)C(=O)N1 [GT-05358, 1-(5-((4-(4-chloro-3-fluoropyridin-2-yl)piperazin-1-yl)methyl)-1-oxoisoindolin-2-yl)dihydropyrimidine-2,4(1H,3H)-dione] | A ("A" is defined as 0% ≤ substrate protein remaining % ≤ 80%) | B ("B" is defined as 80%< substrate protein remaining %≤ 100%) | B ("B" is defined as 80%< substrate protein remaining %≤ 100%) | B ("B" is defined as 80%< substrate protein remaining %≤ 100%) | B ("B" is defined as 80%< substrate protein remaining %≤ 100%) | B ("B" is defined as 80%< substrate protein remaining %≤ 100%)
